Laboratory results as given in publication PMC7385619, “A triple action CDK4/6-PI3K-BET inhibitor with augmented cancer cell cytotoxicity” (Cell Discovery, 2020).
Where two headings read alike, the source gives them in different places.

Columns and labels:
Experiment in all cases: KINOMEscan assay (Eurofins DiscoverX)
Format in all cases: binding
[1] = biological target: T1, kinome (kinase panel) (Homo sapiens, UniProt P10721, V559D/V654A); details: read-out: Percent Control
T1 construct: purchased Eurofins DiscoverX

[2] = biological target: T2, kinome (kinase panel) (Homo sapiens, UniProt O43683); details: BUB1; 1000 nM; read-out: Percent Control
T2 construct: purchased Eurofins DiscoverX

[3] = biological target: T3, kinome (kinase panel) (Homo sapiens, UniProt O60331); details: PIP5K1C; 1000 nM; read-out: Percent Control
T3 construct: purchased Eurofins DiscoverX

[4] = biological target: T4, kinome (kinase panel) (Homo sapiens, UniProt P35626); details: GRK3 (Entrez ADRBK2); 1000 nM; read-out: Percent Control
T4 construct: purchased Eurofins DiscoverX

[5] = biological target: T5, kinome (kinase panel) (Homo sapiens, UniProt P54646); details: AMPK-alpha2 (Entrez PRKAA2); 1000 nM; read-out: Percent Control
T5 construct: purchased Eurofins DiscoverX

[6] = biological target: T6, kinome (kinase panel) (Homo sapiens, UniProt Q9H2X6); details: HIPK2; 1000 nM; read-out: Percent Control
T6 construct: purchased Eurofins DiscoverX

[7] = biological target: T7, kinome (kinase panel) (Homo sapiens, UniProt Q8N4C8); details: MINK (Entrez MINK1); 1000 nM; read-out: Percent Control
T7 construct: purchased Eurofins DiscoverX

[8] = biological target: T8, kinome (kinase panel) (Homo sapiens, UniProt Q05655); details: PRKCD; 1000 nM; read-out: Percent Control
T8 construct: purchased Eurofins DiscoverX

[9] = biological target: T9, kinome (kinase panel) (Homo sapiens, UniProt Q9UIK4); details: DAPK2; 1000 nM; read-out: Percent Control
T9 construct: purchased Eurofins DiscoverX

[10] = biological target: T10, kinome (kinase panel) (Homo sapiens, UniProt Q00535); details: CDK5; 1000 nM; read-out: Percent Control
T10 construct: purchased Eurofins DiscoverX

[11] = biological target: T11, kinome (kinase panel) (Homo sapiens, UniProt O75716); details: STK16; 1000 nM; read-out: Percent Control
T11 construct: purchased Eurofins DiscoverX

[12] = biological target: T12, kinome (kinase panel) (Homo sapiens, UniProt P49840); details: GSK3A; 1000 nM; read-out: Percent Control
T12 construct: purchased Eurofins DiscoverX

[13] = biological target: T13, kinome (kinase panel) (Homo sapiens, UniProt O15264); details: p38-delta (Entrez MAPK13); 1000 nM; read-out: Percent Control
T13 construct: purchased Eurofins DiscoverX

[14] = biological target: T14, kinome (kinase panel) (Homo sapiens, UniProt P00533, DEL752-759); details: EGFR(S752-I759del); 1000 nM; read-out: Percent Control
T14 construct: purchased Eurofins DiscoverX

[15] = biological target: T15, kinome (kinase panel) (Homo sapiens, UniProt O14976); details: GAK; 1000 nM; read-out: Percent Control
T15 construct: purchased Eurofins DiscoverX

[16] = biological target: T16, kinome (kinase panel) (Homo sapiens, UniProt P00533, T790M); details: […]; 1000 nM; read-out: Percent Control
T16 construct: purchased Eurofins DiscoverX

[17] = biological target: T17, kinome (kinase panel) (Homo sapiens, UniProt O00329); details: PIK3CD; 1000 nM; read-out: Percent Control
T17 construct: purchased Eurofins DiscoverX

[18] = biological target: T18, kinome (kinase panel) (Homo sapiens, UniProt Q9UM73, L1196M); details: […]; 1000 nM; read-out: Percent Control
T18 construct: purchased Eurofins DiscoverX

[19] = biological target: T19, kinome (kinase panel) (Homo sapiens, UniProt Q15569); details: TESK1; 1000 nM; read-out: Percent Control
T19 construct: purchased Eurofins DiscoverX
T19 sequence (Q15569 whole entry): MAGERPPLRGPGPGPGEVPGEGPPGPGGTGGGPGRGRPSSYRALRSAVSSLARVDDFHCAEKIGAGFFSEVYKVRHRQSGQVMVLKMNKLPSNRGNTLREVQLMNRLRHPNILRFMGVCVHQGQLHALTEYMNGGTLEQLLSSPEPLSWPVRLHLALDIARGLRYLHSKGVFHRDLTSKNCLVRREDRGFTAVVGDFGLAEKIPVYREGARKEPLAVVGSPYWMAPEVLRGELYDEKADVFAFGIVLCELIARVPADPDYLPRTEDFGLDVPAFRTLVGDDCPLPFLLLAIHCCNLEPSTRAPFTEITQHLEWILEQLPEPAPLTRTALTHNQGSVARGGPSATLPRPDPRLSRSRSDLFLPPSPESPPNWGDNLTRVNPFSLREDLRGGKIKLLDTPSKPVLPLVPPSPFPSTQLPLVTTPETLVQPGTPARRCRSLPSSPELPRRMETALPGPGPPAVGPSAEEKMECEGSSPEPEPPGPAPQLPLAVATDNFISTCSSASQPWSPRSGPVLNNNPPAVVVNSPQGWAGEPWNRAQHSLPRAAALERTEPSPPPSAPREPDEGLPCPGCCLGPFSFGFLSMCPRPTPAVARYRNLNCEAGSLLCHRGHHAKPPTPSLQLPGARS

[20] = biological target: T20, kinome (kinase panel) (Homo sapiens, UniProt P04629); details: TRKA (NTRK1); 1000 nM; read-out: Percent Control
T20 construct: purchased Eurofins DiscoverX

[21] = biological target: T21, kinome (kinase panel) (Homo sapiens, UniProt P22607, G697C); details: read-out: Percent Control
T21 construct: purchased Eurofins DiscoverX

[22] = biological target: T22, kinome (kinase panel) (Homo sapiens, UniProt Q15349); details: 1000 nM, read-out: Percent Control
T22 construct: purchased Eurofins DiscoverX
T22 sequence (Q15349 whole entry): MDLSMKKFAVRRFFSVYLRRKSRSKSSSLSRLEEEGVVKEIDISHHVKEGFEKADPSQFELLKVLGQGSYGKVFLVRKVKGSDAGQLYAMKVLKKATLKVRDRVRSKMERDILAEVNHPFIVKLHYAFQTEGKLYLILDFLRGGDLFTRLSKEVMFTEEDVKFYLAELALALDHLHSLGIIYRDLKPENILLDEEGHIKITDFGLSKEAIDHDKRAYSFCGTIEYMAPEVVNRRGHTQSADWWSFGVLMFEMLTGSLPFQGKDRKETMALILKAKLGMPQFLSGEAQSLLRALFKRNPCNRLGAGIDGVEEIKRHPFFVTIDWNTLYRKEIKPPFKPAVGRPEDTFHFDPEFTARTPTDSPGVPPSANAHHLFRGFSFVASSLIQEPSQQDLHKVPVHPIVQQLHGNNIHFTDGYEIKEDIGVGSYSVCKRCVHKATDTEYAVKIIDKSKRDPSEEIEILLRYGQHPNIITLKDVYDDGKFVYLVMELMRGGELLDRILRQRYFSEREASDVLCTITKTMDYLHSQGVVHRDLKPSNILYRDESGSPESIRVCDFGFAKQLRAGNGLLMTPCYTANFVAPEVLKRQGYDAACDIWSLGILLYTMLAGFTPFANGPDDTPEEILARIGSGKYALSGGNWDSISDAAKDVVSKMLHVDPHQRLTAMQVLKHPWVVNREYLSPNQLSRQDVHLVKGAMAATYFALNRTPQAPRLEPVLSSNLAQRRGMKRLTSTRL

[23] = biological target: T23, kinome (kinase panel) (Homo sapiens, UniProt Q8IU85); details: CAMK1D; 1000 nM; read-out: Percent Control
T23 construct: purchased Eurofins DiscoverX

[24] = biological target: T24, kinome (kinase panel) (Homo sapiens, UniProt Q99683); details: ASK1 (Entrez MAP3K5); 1000 nM; read-out: Percent Control
T24 construct: purchased Eurofins DiscoverX
T24 sequence (Q99683 whole entry): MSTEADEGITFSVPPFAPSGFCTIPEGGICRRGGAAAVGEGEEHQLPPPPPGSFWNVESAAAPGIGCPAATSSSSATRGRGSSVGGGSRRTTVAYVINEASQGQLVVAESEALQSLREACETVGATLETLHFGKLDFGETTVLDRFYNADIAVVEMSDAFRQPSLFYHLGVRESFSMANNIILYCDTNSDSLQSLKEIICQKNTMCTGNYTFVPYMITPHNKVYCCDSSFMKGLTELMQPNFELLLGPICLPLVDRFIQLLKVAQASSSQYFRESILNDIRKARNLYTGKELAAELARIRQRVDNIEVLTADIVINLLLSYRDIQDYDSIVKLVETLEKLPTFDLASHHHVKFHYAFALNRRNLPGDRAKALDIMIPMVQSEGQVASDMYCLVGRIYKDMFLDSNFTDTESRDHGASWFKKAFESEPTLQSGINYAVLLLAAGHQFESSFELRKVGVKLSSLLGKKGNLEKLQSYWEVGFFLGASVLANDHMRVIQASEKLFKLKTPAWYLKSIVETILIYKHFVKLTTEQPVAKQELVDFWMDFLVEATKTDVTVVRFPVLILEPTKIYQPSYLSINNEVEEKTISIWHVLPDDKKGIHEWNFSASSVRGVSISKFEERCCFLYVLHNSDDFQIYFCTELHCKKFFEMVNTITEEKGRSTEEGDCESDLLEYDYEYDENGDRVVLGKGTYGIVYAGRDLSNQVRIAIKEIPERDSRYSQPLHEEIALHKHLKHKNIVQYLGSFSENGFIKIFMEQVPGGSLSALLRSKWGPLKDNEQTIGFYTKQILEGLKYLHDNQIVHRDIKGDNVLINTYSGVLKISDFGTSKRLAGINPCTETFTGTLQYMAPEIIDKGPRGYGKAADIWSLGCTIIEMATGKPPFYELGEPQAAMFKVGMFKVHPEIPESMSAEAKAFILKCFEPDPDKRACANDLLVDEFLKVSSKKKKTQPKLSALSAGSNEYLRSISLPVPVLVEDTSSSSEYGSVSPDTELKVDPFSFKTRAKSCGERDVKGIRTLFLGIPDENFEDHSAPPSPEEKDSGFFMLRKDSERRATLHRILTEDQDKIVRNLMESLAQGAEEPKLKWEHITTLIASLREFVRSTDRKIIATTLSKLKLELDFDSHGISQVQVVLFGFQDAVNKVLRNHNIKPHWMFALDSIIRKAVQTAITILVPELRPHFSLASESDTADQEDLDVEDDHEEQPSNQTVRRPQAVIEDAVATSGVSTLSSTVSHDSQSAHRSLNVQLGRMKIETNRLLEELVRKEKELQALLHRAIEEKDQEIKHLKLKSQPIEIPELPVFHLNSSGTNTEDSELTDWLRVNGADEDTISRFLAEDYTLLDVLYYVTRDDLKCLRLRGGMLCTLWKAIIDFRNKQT

[25] = biological target: T25, kinome (kinase panel) (Homo sapiens, UniProt P36888); details: 1000 nM, read-out: Percent Control
T25 construct: purchased Eurofins DiscoverX
T25 sequence (P36888 27-993): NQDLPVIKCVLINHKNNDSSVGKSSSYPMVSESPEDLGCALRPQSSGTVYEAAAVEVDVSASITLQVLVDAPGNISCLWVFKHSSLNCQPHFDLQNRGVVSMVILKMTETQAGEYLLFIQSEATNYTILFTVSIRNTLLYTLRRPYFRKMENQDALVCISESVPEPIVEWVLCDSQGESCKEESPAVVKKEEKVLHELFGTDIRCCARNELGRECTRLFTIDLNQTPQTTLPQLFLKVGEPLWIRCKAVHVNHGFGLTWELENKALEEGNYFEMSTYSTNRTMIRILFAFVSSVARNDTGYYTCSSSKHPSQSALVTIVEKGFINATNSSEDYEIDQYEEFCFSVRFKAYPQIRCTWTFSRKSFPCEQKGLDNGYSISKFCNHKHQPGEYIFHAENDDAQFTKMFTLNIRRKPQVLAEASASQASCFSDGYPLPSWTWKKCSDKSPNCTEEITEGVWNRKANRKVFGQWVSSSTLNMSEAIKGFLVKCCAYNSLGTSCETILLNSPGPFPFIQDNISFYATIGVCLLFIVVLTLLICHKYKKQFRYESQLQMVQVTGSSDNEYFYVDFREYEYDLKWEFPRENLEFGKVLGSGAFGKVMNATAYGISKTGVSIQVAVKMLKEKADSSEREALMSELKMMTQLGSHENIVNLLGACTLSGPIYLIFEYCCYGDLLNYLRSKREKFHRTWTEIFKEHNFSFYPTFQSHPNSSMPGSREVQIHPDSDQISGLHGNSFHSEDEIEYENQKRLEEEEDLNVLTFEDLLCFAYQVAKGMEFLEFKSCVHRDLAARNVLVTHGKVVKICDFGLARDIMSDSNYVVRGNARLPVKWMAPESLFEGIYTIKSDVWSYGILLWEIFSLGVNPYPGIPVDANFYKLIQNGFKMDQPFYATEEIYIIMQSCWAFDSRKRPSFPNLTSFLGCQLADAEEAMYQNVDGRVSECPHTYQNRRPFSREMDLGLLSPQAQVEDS

[26] = biological target: T26, kinome (kinase panel) (Homo sapiens, UniProt Q16832); details: DDR2; 1000 nM; read-out: Percent Control
T26 construct: purchased Eurofins DiscoverX

[27] = biological target: T27, kinome (kinase panel) (Homo sapiens, UniProt P07949); details: RET; 1000 nM; read-out: Percent Control
T27 construct: purchased Eurofins DiscoverX

[28] = biological target: T28, kinome (kinase panel) (Homo sapiens, UniProt O00506); details: YSK1 (STK25); 1000 nM; read-out: Percent Control
T28 construct: purchased Eurofins DiscoverX

[29] = biological target: T29, kinome (kinase panel) (Homo sapiens, UniProt P52333); details: JAK3(JH1domain-catalytic); 1000 nM; read-out: Percent Control
T29 construct: purchased Eurofins DiscoverX
T29 sequence (P52333 whole entry): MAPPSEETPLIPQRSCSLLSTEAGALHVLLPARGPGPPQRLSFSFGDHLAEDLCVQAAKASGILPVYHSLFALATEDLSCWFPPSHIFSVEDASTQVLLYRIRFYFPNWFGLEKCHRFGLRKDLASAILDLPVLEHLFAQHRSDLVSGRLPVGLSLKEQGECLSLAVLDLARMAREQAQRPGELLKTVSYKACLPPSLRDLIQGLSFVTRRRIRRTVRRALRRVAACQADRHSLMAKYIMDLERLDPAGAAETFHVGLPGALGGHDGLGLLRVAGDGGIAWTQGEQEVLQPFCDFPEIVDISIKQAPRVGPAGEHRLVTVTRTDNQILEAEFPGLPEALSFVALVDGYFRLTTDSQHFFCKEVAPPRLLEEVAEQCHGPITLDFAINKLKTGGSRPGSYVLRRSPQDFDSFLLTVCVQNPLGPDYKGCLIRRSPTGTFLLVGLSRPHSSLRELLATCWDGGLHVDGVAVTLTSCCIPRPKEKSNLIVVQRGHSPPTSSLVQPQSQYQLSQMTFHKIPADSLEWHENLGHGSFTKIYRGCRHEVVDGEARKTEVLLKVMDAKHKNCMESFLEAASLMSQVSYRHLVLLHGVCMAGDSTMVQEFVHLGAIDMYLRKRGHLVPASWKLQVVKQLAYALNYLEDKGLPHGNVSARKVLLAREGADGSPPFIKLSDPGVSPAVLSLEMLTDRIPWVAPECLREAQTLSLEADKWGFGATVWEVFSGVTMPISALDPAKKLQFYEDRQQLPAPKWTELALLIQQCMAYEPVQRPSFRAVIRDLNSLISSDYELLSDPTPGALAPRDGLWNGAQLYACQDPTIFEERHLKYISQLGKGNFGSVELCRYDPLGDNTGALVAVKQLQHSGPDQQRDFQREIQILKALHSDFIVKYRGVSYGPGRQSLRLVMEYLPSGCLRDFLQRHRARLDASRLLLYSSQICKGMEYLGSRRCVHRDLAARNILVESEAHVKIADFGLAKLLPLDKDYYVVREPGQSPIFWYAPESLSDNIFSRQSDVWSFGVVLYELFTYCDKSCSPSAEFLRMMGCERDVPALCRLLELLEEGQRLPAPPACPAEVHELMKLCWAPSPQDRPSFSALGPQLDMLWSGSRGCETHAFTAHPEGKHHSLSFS

[30] = biological target: T30, kinome (kinase panel) (Homo sapiens, UniProt P51956); details: NEK3; 1000 nM; read-out: Percent Control
T30 construct: purchased Eurofins DiscoverX

[31] = biological target: T31, kinome (kinase panel) (Homo sapiens, UniProt Q9UM73); details: ALK; 1000 nM; read-out: Percent Control
T31 construct: purchased Eurofins DiscoverX

[32] = biological target: T32, kinome (kinase panel) (Homo sapiens, UniProt O15111); details: IKK-alpha (Entrez CHUK); 1000 nM; read-out: Percent Control
T32 construct: purchased Eurofins DiscoverX

CN(C)C(=O)c1cc2cnc(Nc3ccc(-c4csc5c(=O)cc(N6CCOCC6)oc45)cc3)nc2n1C1CCCC1 [SRX3177]
remaining binding at 1 µM [1]: 100% | remaining binding at 1 µM [2]: 50% | remaining binding at 1 µM [3]: 87% | remaining binding at 1 µM [4]: 46% | remaining binding at 1 µM [5]: 98% | remaining binding at 1 µM [6]: 76% | remaining binding at 1 µM [7]: 77% | remaining binding at 1 µM [8]: 86% | remaining binding at 1 µM [9]: 89% | remaining binding at 1 µM [10]: 90% | remaining binding at 1 µM [11]: 28% | remaining binding at 1 µM [12]: 60% | remaining binding at 1 µM [13]: 97% | remaining binding at 1 µM [14]: 100% | remaining binding at 1 µM [15]: 56% | remaining binding at 1 µM [16]: 46% | remaining binding at 1 µM [17]: 63% | remaining binding at 1 µM [18]: 84% | remaining binding at 1 µM [19]: 87% | remaining binding at 1 µM [20]: 1.1% | remaining binding at 1 µM [21]: 89% | remaining binding at 1 µM ([22]; RSK3(Kin.Dom.1-N-terminal) (RPS6KA2)): 80% | remaining binding at 1 µM ([22]; RSK3(Kin.Dom.2-C-terminal) (RPS6KA2)): 74% | remaining binding at 1 µM [23]: 95% | remaining binding at 1 µM [24]: 100% | remaining binding at 1 µM ([25]; FLT3-autoinhibited): 63% | remaining binding at 1 µM ([25]; FLT3): 26% | remaining binding at 1 µM [26]: 56% | remaining binding at 1 µM [27]: 100% | remaining binding at 1 µM [28]: 100% | remaining binding at 1 µM [29]: 13% | remaining binding at 1 µM [30]: 90% | remaining binding at 1 µM [31]: 66% | remaining binding at 1 µM [32]: 61%
